Source: ChEMBL document CHEMBL5154710, “Discovery of small molecules interacting at lactate dehydrogenases tetrameric interface using a biophysical screening cascade” (Eur J Med Chem, 2022)

Assays:
[1] = Stabilization of Red-dye-NHS fluorescent-labeled human LDH-Htr expressed in Escherichia coli assessed as dissociation constant by MST assay
[2] = Destabilization of Red-dye-NHS fluorescent-labeled human LDH-1 expressed in Escherichia coli assessed as dissociation constant by MST assay
Homo sapiens [3] = organism: Homo sapiens; test: Destabilization of human LDH-1expressed in Escherichia coli assessed as change in melting temperature at 1 mM heated for 3 mins by NanoDSF assay
Homo sapiens [4] = organism: Homo sapiens; test: Destabilization of human LDH-5 expressed in Escherichia coli assessed as change in melting temperature at 1 mM heated for 3 mins by NanoDSF assay
[5] = Destabilization of Red-dye-NHS fluorescent-labeled human LDH-5 expressed in Escherichia coli assessed as dissociation constant by MST assay
Homo sapiens [6] = organism: Homo sapiens; test: Stabilization of human LDH-Htr expressed in Escherichia coli assessed as change in melting temperature at 1 mM heated for 3 mins by NanoDSF assay
Homo sapiens [7] = organism: Homo sapiens; test: Displacement of macro-cycle 7 from human LDH-Htr expressed in Escherichia coli assessed as decay in saturation transfer at 100 uM by saturation transfer difference-1H NMR analysis
[8] = Inhibition of LDH-5 (unknown origin) assessed as denaturation of LDH-5 using NADH and pyruvate as substrate by spectrophotometric analysis; set-up: species or system Homo sapiens

| SMILES | Kd [1] | Kd [2] | ΔTm (Homo sapiens [3]) | ΔTm (Homo sapiens [4]) | Kd [5] | ΔTm (Homo sapiens [6]) | Activity (Homo sapiens [7]) | IC50 [8] |
| --- | --- | --- | --- | --- | --- | --- | --- | --- |
| Nc1nc2ccccc2n1Cc1ccc(F)cc1 | 183 µM | 48 µM | 0.4 °C | -2.6 °C | 324 µM | 0.8 °C |  |  |
| CNCCCC12CCC(c3ccccc31)c1ccccc12 |  |  | -1.4 °C | -2.7 °C |  | 4.6 °C |  |  |
| O=C(O)c1cc(-c2ccc(F)cc2F)ccc1O [DIFLUNISAL] | 1000 µM | 116 µM | 0.1 °C | -2.1 °C | 343 µM | 3.1 °C |  |  |
| O=C(O)c1ccccc1Nc1cccc(C(F)(F)F)c1 [FLUFENAMIC ACID] | 900 µM | 1700 µM | 0.4 °C | -1.7 °C |  | 1.9 °C |  |  |
| Cc1ccc(/C(=C\CN2CCCC2)c2ccccn2)cc1 [TRIPROLIDINE] |  |  |  |  |  |  | 40% | 7600 µM |
